In brackets after ≈: the same amount, converted by molar mass.
Experiments:
Micrococcus flavus = assay: Antibacterial activity against Micrococcus flavus ATCC 10240 assessed as growth inhibition after 24 hrs at 37 degC by iodonitrotetrazolium chloride staining based microdilution broth assay; format: functional; conditions: ATCC 10240, 24 h
Talaromyces funiculosus = assay: Antifungal activity against Penicillium funiculosum ATCC 36839 assessed as growth inhibition after 72 hrs at 28 degC by serial dilution method; format: functional; conditions: for MIC: Talaromyces funiculosus, ATCC 36839, 72 h
Enterobacter cloacae = assay: Antibacterial activity against human isolate of Enterobacter cloacae assessed as growth inhibition after 24 hrs at 37 degC by iodonitrotetrazolium chloride staining based microdilution broth assay; format: functional
Bacillus cereus = assay: Antibacterial activity against clinical isolates of Bacillus cereus assessed as growth inhibition after 24 hrs at 37 degC by iodonitrotetrazolium chloride staining based microdilution broth assay; format: functional
Listeria monocytogenes = assay: Antibacterial activity against Listeria monocytogenes NCTC 7973 assessed as growth inhibition after 24 hrs at 37 degC by iodonitrotetrazolium chloride staining based microdilution broth assay; format: functional; conditions: NCTC 7973, 24 h
Aspergillus fumigatus = assay: Antifungal activity against Aspergillus fumigatus ATCC 1022 assessed as growth inhibition after 72 hrs at 28 degC by serial dilution method; format: functional; conditions: for MIC: Aspergillus fumigatus, ATCC 1022, 72 h
Trichoderma viride = assay: Antifungal activity against Trichoderma viride IAM 5061 assessed as growth inhibition after 72 hrs at 28 degC by serial dilution method; format: functional; conditions: for MIC: Trichoderma viride, IAM 5061, 72 h
[1] = target: Human immunodeficiency virus type 1 reverse transcriptase (Human immunodeficiency virus 1) (UniProt Q72547); assay: Inhibition of HIV1 reverse transcriptase assessed as residual enzyme activity by measuring reduction in [3H]dTTP incorporation into poly(rA)-oligo(dT) at 4 uM incubated for 15 mins by scintillation counting method relative to control
Staphylococcus aureus = assay: Antibacterial activity against Staphylococcus aureus ATCC 6538 assessed as growth inhibition after 24 hrs at 37 degC by iodonitrotetrazolium chloride staining based microdilution broth assay; format: functional; conditions: ATCC 6538, 24 h
Aspergillus ochraceus = assay: Antifungal activity against Aspergillus ochraceus ATCC 12066 assessed as growth inhibition after 72 hrs at 28 degC by serial dilution method; format: functional; conditions: for MIC: Aspergillus ochraceus, ATCC 12066, 72 h
Penicillium ochrochloron = assay: Antifungal activity against Penicillium ochrochloron ATCC 9112 assessed as growth inhibition after 72 hrs at 28 degC by serial dilution method; format: functional; conditions: for MIC: Penicillium ochrochloron, ATCC 9112, 72 h
Salmonella typhimurium = assay: Antibacterial activity against Salmonella typhimurium ATCC 13311 assessed as growth inhibition after 24 hrs at 37 degC by iodonitrotetrazolium chloride staining based microdilution broth assay; format: functional, Salmonella enterica subsp. enterica serovar Typhimurium; conditions: Salmonella enterica, ATCC 13311, 24 h
Escherichia coli = assay: Antibacterial activity against Escherichia coli ATCC 35210 assessed as growth inhibition after 24 hrs at 37 degC by iodonitrotetrazolium chloride staining based microdilution broth assay; format: functional; conditions: ATCC 35210, 24 h
Pseudomonas aeruginosa = assay: Antibacterial activity against Pseudomonas aeruginosa ATCC 27853 assessed as growth inhibition after 24 hrs at 37 degC by iodonitrotetrazolium chloride staining based microdilution broth assay; format: functional; conditions: ATCC 27853, 24 h
Aspergillus niger = assay: Antifungal activity against Aspergillus niger ATCC 6275 assessed as growth inhibition after 72 hrs at 28 degC by serial dilution method; format: functional; conditions: for MIC: Aspergillus niger, ATCC 6275, 72 h
Candida albicans = assay: Antifungal activity against Candida albicans ATCC 10231 assessed as growth inhibition after 72 hrs at 28 degC by serial dilution method; format: functional; conditions: for MIC: Candida albicans, ATCC 10231, 72 h
Aspergillus versicolor = assay: Antifungal activity against Aspergillus versicolor ATCC 11730 assessed as growth inhibition after 72 hrs at 28 degC by serial dilution method; format: functional; conditions: for MIC: Aspergillus versicolor, ATCC 11730, 72 h

| SMILES | MBC (Micrococcus flavus) [µM] | MIC (Micrococcus flavus) [µM] | MFC99.5 (Talaromyces funiculosus) [×10⁻² umol/ml] | MIC (Talaromyces funiculosus) [µM] | MBC (Enterobacter cloacae) [µM] | MIC (Enterobacter cloacae) [µM] | MBC (Bacillus cereus) [µM] | MIC (Bacillus cereus) [µM] | MBC (Listeria monocytogenes) [µM] | MIC (Listeria monocytogenes) [µM] | MFC99.5 (Aspergillus fumigatus) [×10⁻² umol/ml] | MIC (Aspergillus fumigatus) [µM] | MFC99.5 (Trichoderma viride) [×10⁻² umol/ml] | MIC (Trichoderma viride) [µM] | Activity [1] [%] | MBC (Staphylococcus aureus) [µM] | MIC (Staphylococcus aureus) [µM] | MFC99.5 (Aspergillus ochraceus) [×10⁻² umol/ml] | MIC (Aspergillus ochraceus) [µM] | MFC99.5 (Penicillium ochrochloron) [×10⁻² umol/ml] | further results |
| --- | --- | --- | --- | --- | --- | --- | --- | --- | --- | --- | --- | --- | --- | --- | --- | --- | --- | --- | --- | --- | --- |
| O=C1CSC(c2c(Cl)cccc2Cl)N1c1nc(C23CC4CC(CC(C4)C2)C3)cs1 (centres undefined) | 430 (≈ 200 µg/mL) | 215 (≈ 100 µg/mL) | 53.71 | 215 (≈ 100 µg/mL) | 430 (≈ 200 µg/mL) | 430 (≈ 200 µg/mL) | 645 (≈ 300 µg/mL) | 430 (≈ 200 µg/mL) | 860 (≈ 400 µg/mL) | 430 (≈ 200 µg/mL) | 53.71 | 215 (≈ 100 µg/mL) | 21.48 | 215 (≈ 100 µg/mL) | 52.5 | 645 (≈ 300 µg/mL) | 430 (≈ 200 µg/mL) | 53.71 | 107 (≈ 50 µg/mL) | 32.22 | MIC (Penicillium ochrochloron): 215 µM (≈ 100 µg/mL); MBC (Salmonella typhimurium): 430 µM (≈ 200 µg/mL); MIC (Salmonella typhimurium): 215 µM (≈ 100 µg/mL); MBC (Escherichia coli): 430 µM (≈ 200 µg/mL); MIC (Escherichia coli): 215 µM (≈ 100 µg/mL); MBC (Pseudomonas aeruginosa): 645 µM (≈ 300 µg/mL); MIC (Pseudomonas aeruginosa): 430 µM (≈ 200 µg/mL); MFC99.5 (Aspergillus niger): 32.22 ×10⁻² umol/ml; MIC (Aspergillus niger): 215 µM (≈ 100 µg/mL); MFC99.5 (Candida albicans): 64.45 ×10⁻² umol/ml; MIC (Candida albicans): 430 µM (≈ 200 µg/mL); MFC99.5 (Aspergillus versicolor): 32.22 ×10⁻² umol/ml; MIC (Aspergillus versicolor): 215 µM (≈ 100 µg/mL) |
| O=C1CSC(c2cccc(Cl)c2Cl)N1c1nc(C23CC4CC(CC(C4)C2)C3)cs1 (centres undefined) | 62.5 (≈ 29.1 µg/mL) | 30.6 (≈ 14.2 µg/mL) | 0.06 | 0.42 (≈ 0.195 µg/mL) | 62.5 (≈ 29.1 µg/mL) | 30.6 (≈ 14.2 µg/mL) | 62.5 (≈ 29.1 µg/mL) | 30.6 (≈ 14.2 µg/mL) | 125 (≈ 58.2 µg/mL) | 62.5 (≈ 29.1 µg/mL) | 0.06 | 0.42 (≈ 0.195 µg/mL) | 0.06 | 0.21 (≈ 0.0977 µg/mL) | 100 | 15.3 (≈ 7.12 µg/mL) | 9 (≈ 4.19 µg/mL) | 0.06 | 0.42 (≈ 0.195 µg/mL) | 0.06 | MIC (Penicillium ochrochloron): 0.21 µM (≈ 0.0977 µg/mL); MBC (Salmonella typhimurium): 62.5 µM (≈ 29.1 µg/mL); MIC (Salmonella typhimurium): 15.3 µM (≈ 7.12 µg/mL); MBC (Escherichia coli): 125 µM (≈ 58.2 µg/mL); MIC (Escherichia coli): 62.5 µM (≈ 29.1 µg/mL); MBC (Pseudomonas aeruginosa): 62.5 µM (≈ 29.1 µg/mL); MIC (Pseudomonas aeruginosa): 15.3 µM (≈ 7.12 µg/mL); MFC99.5 (Aspergillus niger): 0.06 ×10⁻² umol/ml; MIC (Aspergillus niger): 0.21 µM (≈ 0.0977 µg/mL); MFC99.5 (Candida albicans): 1.075 ×10⁻² umol/ml; MIC (Candida albicans): 5.3 µM (≈ 2.47 µg/mL); MFC99.5 (Aspergillus versicolor): 0.06 ×10⁻² umol/ml; MIC (Aspergillus versicolor): 0.21 µM (≈ 0.0977 µg/mL) |
| O=C1CSC(c2ccc(Cl)cc2)N1c1nc(C23CC4CC(CC(C4)C2)C3)cs1 (centres undefined) | 62.5 (≈ 26.9 µg/mL) | 30.6 (≈ 13.2 µg/mL) | 0.07 | 0.45 (≈ 0.194 µg/mL) | 125 (≈ 53.9 µg/mL) | 62.5 (≈ 26.9 µg/mL) | 62.5 (≈ 26.9 µg/mL) | 16.2 (≈ 7 µg/mL) | 125 (≈ 53.9 µg/mL) | 62.5 (≈ 26.9 µg/mL) | 0.07 | 0.45 (≈ 0.194 µg/mL) | 0.05 | 0.3 (≈ 0.129 µg/mL) | 99 | 62.5 (≈ 26.9 µg/mL) | 16.2 (≈ 7 µg/mL) | 0.07 | 0.5 (≈ 0.216 µg/mL) | 0.07 | MIC (Penicillium ochrochloron): 0.3 µM (≈ 0.129 µg/mL); MBC (Salmonella typhimurium): 62.5 µM (≈ 26.9 µg/mL); MIC (Salmonella typhimurium): 16.2 µM (≈ 7 µg/mL); MBC (Escherichia coli): 125 µM (≈ 53.9 µg/mL); MIC (Escherichia coli): 62.5 µM (≈ 26.9 µg/mL); MBC (Pseudomonas aeruginosa): 125 µM (≈ 53.9 µg/mL); MIC (Pseudomonas aeruginosa): 16.2 µM (≈ 7 µg/mL); MFC99.5 (Aspergillus niger): 0.07 ×10⁻² umol/ml; MIC (Aspergillus niger): 0.45 µM (≈ 0.194 µg/mL); MFC99.5 (Candida albicans): 1.16 ×10⁻² umol/ml; MIC (Candida albicans): 5.8 µM (≈ 2.5 µg/mL); MFC99.5 (Aspergillus versicolor): 0.07 ×10⁻² umol/ml; MIC (Aspergillus versicolor): 0.5 µM (≈ 0.216 µg/mL) |
